Molecular target: T1, human orexin-2 (hOX2) receptors (Homo sapiens, UniProt O43614)
T1 construct: expressed in transfected cells
T1 sequence (O43614 1-444): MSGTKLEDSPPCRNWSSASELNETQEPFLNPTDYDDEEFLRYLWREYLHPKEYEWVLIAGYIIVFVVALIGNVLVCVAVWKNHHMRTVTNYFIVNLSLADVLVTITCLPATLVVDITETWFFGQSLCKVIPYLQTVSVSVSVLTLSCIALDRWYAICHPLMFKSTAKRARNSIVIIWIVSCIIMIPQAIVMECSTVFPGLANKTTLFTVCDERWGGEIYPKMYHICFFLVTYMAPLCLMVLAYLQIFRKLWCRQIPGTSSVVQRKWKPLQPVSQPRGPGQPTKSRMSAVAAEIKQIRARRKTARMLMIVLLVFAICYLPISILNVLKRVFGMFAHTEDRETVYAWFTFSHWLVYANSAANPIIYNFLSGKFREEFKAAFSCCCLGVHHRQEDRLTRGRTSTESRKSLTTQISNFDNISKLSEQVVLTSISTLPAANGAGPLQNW
Assay: Intracellular Ca2+ mobilization assay (FLIPR), antagonism of orexin-A
Type: cell-based
Conditions: CHO(dHFr−) cells stably expressing hOX2; orexin-A at EC80 as agonist; Kb=IC50/(1+[A]/EC50); read-out: Kb (μM) OX2R (human)
Method: R^7 and R^8 in scheme 5 are hydrogen, and the other substituents are as described above The compounds were investigated in accordance with the test given hereinafter. Intracellular Ca^2+ Mobilization Assay
The Chinese Hamster Ovary (dHFr−) mutant cell line stably expressing human orexin-1 (hOX1) or human orexin-2 (hOX2) receptors were maintained in Dulbecco's Modified Eagle Medium (1×) with GlutaMax™ 1, 4500 mg/L D-Glucose and Sodium Pyruvate (Catalog No. 31966-021, Invitrogen, Carlsbad, Calif.), 5% dialyzed fetal calf serum (Catalog No. 26400-044), 100 μg/ml penicillin and 100 μg/ml streptomycin. The cells were seeded at 5×10^4 cells/well in the poly-D-lysine treated, 96-well, black/clear-bottomed plates (Catalog No. BD356640, BD Biosciences, Palo Alto, Calif.). 24 h later, the cells were loaded for 1 h at 37° C. with 4 μM Flou-4 acetoxymethyl ester (Catalog No. F-14202, Molecular Probes, Eugene, Oreg.) in FLIPR buffer (1×HBSS, 20 mM HEPES, 2.5 mM Probenecid). Hanks' Balanced Salt Solution (HBSS) (10×) (catalog No. 14065-049) and HEPES (1M) (catalog No. 15630-056) were purchased from Invitrogen, Carlsbad, Calif. Probenecid (250 mM) (catalog No. P8761) was from Sigma, Buchs, Switzerland. The cells were washed five times with FLIPR buffer to remove excess dye and intracellular calcium mobilization, [Ca^2+]i were measured using a Fluorometric Imaging Plate Reader (FLIPR-96, Molecular Devices, Menlo Park, Calif.) as described previously (Malherbe et al., Mol. Pharmacol., 64, 823-832, 2003). Orexin A (catalog No. 1455, Toris Cookson Ltd, Bristol, UK) was used as agonist. Orexin A ([…] stock solution in DMSO) was diluted in FLIPR buffer+0.1% BSA. The EC50 and EC80 values of orexin-A were measured daily from standard agonist concentration-response curves in CHO(dHFr−)-OX1R and —OX2R cell lines. All compounds were dissolved in 100% DMSO. Inhibition curves were determined by addition of 11 concentrations (0.0001-10 μM) of inhibitory compounds and using EC80 value of orexin-A as agonist (a concentration which gave 80% of max agonist response, determined daily). The antagonists were applied 25 min (incubation at 37° C.) before the application of the agonist. Responses were measured as peak increase in fluorescence minus basal, normalized to the maximal stimulatory effect induced by EC80 value of orexin-A or orexin-B. Inhibition curves were fitted according to the Hill equation: y=100/(1+(x/IC50)^nH), where nH=slope factor using Excel-fit 4 software (Microsoft). Kb values were calculated according to the following equation Kb=IC50/(1+[A]/EC50) where A is the concentration of agonist added which is very close to agonist EC80 value, and IC50 and EC50 values were derived from the antagonist inhibition and orexin-A or B agonist curves, respectively.

Kb [µM] | Structure (SMILES)
0.007 | CNC(=O)C(NC(CCc1ccc(C(F)(F)F)cc1)c1cc(C(C)C)no1)c1ccccc1 (stereo not shown) [Example 92, 2-[1-(3-Isopropyl-isoxazol-5-yl)-3-(4-trifluoromethyl-phenyl)-propylamino]-N-methyl-2-phenyl-acetamide]
0.003 | CNC(=O)[C@H](N[C@@H](CCc1ccc(C(F)(F)F)cc1)c1ccc(OC)c(OC)c1)c1ccccc1 (racemic) [Example 142, (S,R)-2-[(R,S)-1-(3,4-Dimethoxy-phenyl)-3-(4-trifluoromethyl-phenyl)-propylamino]-N-methyl-2-phenyl-acetamide]
0.0096 | CNC(=O)[C@H](N[C@@H](CCc1ccc(C(F)(F)F)cc1)c1cc(OC)ccn1)c1ccccc1 (racemic) [Example 210, (S,R)-2-[(R,S)-1-(4-Methoxy-pyridin-2-yl)-3-(4-trifluoromethyl-phenyl)-propylamino]-N-methyl-2-phenyl-acetamide]
0.008 | CNC(=O)[C@H](N[C@H](CCc1ccc(C(F)(F)F)nc1)c1ccc(Cl)c(OC)c1)c1ccccc1 (racemic) [Example 215, (S,R)-2-[(S,R)-1-(4-Chloro-3-methoxy-phenyl)-3-(6-trifluoromethyl-pyridin-3-yl)-propylamino]-N-methyl-2-phenyl-acetamide]
0.0067 | CNC(=O)[C@H](N[C@@H](CCc1ccccc1)c1ccc(OC)c(OC)c1)c1ccccc1 (single isomer, unassigned) [Example 314]
0.0132 | CNC(=O)[C@H](N[C@@H](CCc1ccc(OC)cc1)c1ccc(OC)c(OC)c1)c1ccccc1 (racemic) [Example 146, (S,R)-2-[(R,S)-1-(3,4-Dimethoxy-phenyl)-3-(4-methoxy-phenyl)-propylamino]-N-methyl-2-phenyl-acetamide]
0.0164 | CNC(=O)[C@H](N[C@@H](CCc1ccc(C(F)(F)F)nc1)c1ccc(F)c(C)c1)c1ccc(OC)cc1 (racemic) [Example 350, (R,S)-2-[(S,R)-1-(4-fluoro-3-methyl-phenyl)-3-(6-trifluoromethyl-pyridin-3-yl)-propylamino]-2-(4-methoxy-phenyl)-N-methyl-acetamide]
0.0168 | CNC(=O)[C@@H](N[C@@H](CCc1ccc(C(F)(F)F)cc1)c1ccc(OC)c(OC)c1)c1ccccc1 (racemic) [Example 141, (S,R)-2-[(S,R)-1-(3,4-Dimethoxy-phenyl)-3-(4-trifluoromethyl-phenyl)-propylamino]-N-methyl-2-phenyl-acetamide]
0.0073 | CNC(=O)[C@H](N[C@@H](CCc1ccc(C(F)(F)F)nc1)c1ccc(Cl)c(OC)c1)c1ccccc1 (racemic) [Example 216, (S,R)-2-[(R,S)-1-(4-Chloro-3-methoxy-phenyl)-3-(6-trifluoromethyl-pyridin-3-yl)-propylamino]-N-methyl-2-phenyl-acetamide]
0.0028 | CNC(=O)[C@H](N[C@@H](CCc1cccc(C(F)(F)F)c1)c1ccc(OC)c(OC)c1)c1ccccc1 (racemic) [Example 321, (R,S)-2-[(S,R)-1-(3,4-Dimethoxy-phenyl)-3-(3-trifluoromethyl-phenyl)-propylamino]-N-methyl-2-phenyl-acetamide]
0.0042 | CNC(=O)[C@H](N[C@@H](CCc1ccc(C)cc1)c1ccc(F)c(C)c1)c1ccccc1 [Example 397, (R)-2-[(S)-1-(4-Fluoro-3-methyl-phenyl)-3-p-tolyl-propylamino]-N-methyl-2-phenyl-acetamide]
0.0123 | CNC(=O)[C@H](N[C@@H](CCc1ccc(C(F)(F)F)cc1)c1cc(C)ccc1F)c1ccc(F)cc1 [Example 124, (R)-2-[(S)-1-(2-Fluoro-5-methyl-phenyl)-3-(4-trifluoromethyl-phenyl)-propylamino]-2-(4-fluoro-phenyl)-N-methyl-acetamide]
0.0536 | CNC(=O)[C@H](N[C@H](CCc1ccc(C(F)(F)F)cc1)c1ccc(OC(F)F)c(OC(F)F)c1)c1ccccc1 (racemic) [Example 290, (S,R)-2-[(S,R)-1-(3,4-Bis-difluoromethoxy-phenyl)-3-(4-trifluoromethyl-phenyl)-propylamino]-N-methyl-2-phenyl-acetamide]
